Experimental data as given in US5696117A, “Benzoxazine antimicrobial agents” (Ortho Pharmaceutical Corporation, priority 1995, dated 1997).
In brackets after ≈: the same amount, converted by molar mass.

Tests used:
Kinase A and SpoOF = target: T1, Kinase A and SpoOF (Bacillus subtilis, UniProt P16497); assay: Autophosphorylation of Kinase A and Transphosphorylation of SpoOF Assay (HPK in vitro assay); format: biochemical; conditions: inhibition of KinA autophosphorylation / SpoOF transphosphorylation, inhibitor concentrations from 1 to 500 μM
T1 construct: made in house; host or cells: recombinant E. coli (overexpression)
T1 sequence (P16497 1-606): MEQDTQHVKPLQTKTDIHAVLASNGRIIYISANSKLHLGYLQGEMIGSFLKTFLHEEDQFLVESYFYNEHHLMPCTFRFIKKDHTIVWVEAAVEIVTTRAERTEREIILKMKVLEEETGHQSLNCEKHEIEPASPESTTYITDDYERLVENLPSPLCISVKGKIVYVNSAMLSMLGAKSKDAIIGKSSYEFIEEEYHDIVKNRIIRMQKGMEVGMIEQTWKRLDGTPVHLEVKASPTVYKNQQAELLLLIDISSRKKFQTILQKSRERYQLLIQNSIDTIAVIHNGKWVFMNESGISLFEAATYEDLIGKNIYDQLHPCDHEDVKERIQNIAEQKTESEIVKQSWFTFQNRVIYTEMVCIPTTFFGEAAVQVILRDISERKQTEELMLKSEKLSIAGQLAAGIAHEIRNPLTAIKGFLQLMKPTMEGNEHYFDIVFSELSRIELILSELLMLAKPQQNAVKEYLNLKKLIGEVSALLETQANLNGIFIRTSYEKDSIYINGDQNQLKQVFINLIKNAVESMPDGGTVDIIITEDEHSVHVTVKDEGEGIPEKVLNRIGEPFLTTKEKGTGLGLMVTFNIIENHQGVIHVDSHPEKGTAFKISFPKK
Outline: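 Recombinant KinA and SpoOF (from E. coli) preincubated 15 min on ice with compound (1.0 mM solution in 5% DMSO, stock), then 10 min at room temperature with [32P]ATP. Labelled proteins resolved by SDS gel, quantified by phosphoimager; IC50 from 1–500 μM compound range.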

gram positive bacteria = assay: MIC antimicrobial assay, microdilution broth method (NCCLS), gram positive bacteria; format: cell-based; conditions: range over the gram positive test organisms; 35° C., 16-20 hours
Procedure: (§1) 2. MIC Anitimicrobial Assay
(§2) The in vitro antimicrobial activity of the compounds was determined by the microdilution broth method following the test method from the National Committee for Laboratory Standards (NCCLS). This method is described in the NCCLS Document M7-A2, Vol. 10, No. 8 "Methods for Dilution Antimicrobial Susceptibility Test for Bacteria that Grow Aerobically--Second Edition."
(§3) In this method two-fold serial dilutions of drug in cation supplemented Mueller-Hinton broth are added to wells in microdilution trays. The test organisms are prepared by adjusting the turbidity of actively growing broth cultures so that the final concentration of test organism after it is added to the wells is approximately 5×10^4 CFUs/well.
(§4) Following inoculation of the microdilution trays, the trays are incubated at 35° C. for 16-20 hours and then read. […] The amount of growth in the wells containing the test compound is compared with the amount of growth in the growth-control wells (no test compound) used in each tray. As set forth in Tables 1 and 2, compounds of the present invention were tested against a variety of Gram+ and Gram- pathogenic bacteria resulting in a range of activities, from 1→128 μg/mL depending on the organism tested. The following test organisms were utilized in the assay:
Enterococcus faecalis ATCC 29212
Enterococcus faecalis oc 3041
Enterococcus faecium oc 2993
Methicillin resistant Staphylococcus aureus oc 2089
Methicillin resistant Staphylococcus aureus oc667
Staphylococcus aureus ATCC 29213
Staphylococcus aureus ATCC 6538
Staphylococcus epidermidis oc 2603

gram negative bacteria = assay: MIC antimicrobial assay, microdilution broth method (NCCLS), gram negative bacteria; format: cell-based; conditions: range over the gram negative test organisms; 35° C., 16-20 hours
Procedure: as §1, §2, §3, §4
Escherichia coli oc 2530 ss
Klebsiella pneumoniae oc 1943
Pseudomonas aeroginosa oc 161
Pseudomonas aeroginosa ATCC 27853

| IC50 (Kinase A and SpoOF) [µM] | MIC (gram positive bacteria) [µg/mL] | MIC (gram negative bacteria) [µg/mL] | SMILES |
| --- | --- | --- | --- |
| 55 | 8 to 32 (≈ 18.9 to 75.7 µM) |  | NCc1ccc(OCCC2Oc3ccccc3N(Cc3cccc(Cl)c3)C2=O)cc1 (centres unmarked) [Compound 2, 2-[2-[4-(Aminomethyl)phenoxy]ethyl]-4-(3-chlorobenzyl)-3,4-dihydro-3-oxo-2H-1,4-benzoxazine] |
| 47 | 8 to 16 (≈ 18.9 to 37.8 µM) |  | NCc1ccc(OCCC2Oc3ccccc3N(Cc3ccc(Cl)cc3)C2=O)cc1 (centres unmarked) [Compound 4, 2-[2-[4-(Aminomethyl)phenoxy]ethyl]-4-(4-chlorobenzyl)-3,4-dihydro-3-oxo-2H-1,4-benzoxazine] |
| 61 | 1 to 2 (≈ 2.29 to 4.58 µM) | 2 to 64 (≈ 4.58 to 146 µM) | NCCc1ccc(OCCC2Oc3ccccc3N(Cc3ccc(Cl)cc3)C2=O)cc1 (centres unmarked) [Compound 6, 2-[2-[4-(2-Aminoethyl)phenoxy]ethyl]-4-(4-chlorobenzyl)-3,4-dihydro-3-oxo-2H-1,4-benzoxazine] |
| 89 | 8 to 16 (≈ 18.3 to 36.6 µM) | 8 to 128 (≈ 18.3 to 293 µM) | NCCc1cccc(OCCC2Oc3ccccc3N(Cc3ccc(Cl)cc3)C2=O)c1 (centres unmarked) [Compound 8, 2-[2-[3-(2-Aminoethyl)phenoxy]ethyl]-4-(4-chlorobenzyl)-3,4-dihydro-3-oxo-2H-1,4-benzoxazine] |
| 74 | 8 to 16 (≈ 18.3 to 36.6 µM) |  | NCCc1cccc(OCCC2Oc3ccccc3N(Cc3ccccc3Cl)C2=O)c1 (centres unmarked) [Compound 16, 2-[2-[3-(2-Aminoethyl)phenoxy]ethyl]-4-(2-chlorobenzyl)-3,4-dihydro-3-oxo-2H-1,4-benzoxazine] |
| 16 | 1 to 4 (≈ 2.15 to 8.6 µM) |  | N=C(N)NCc1ccc(OCCC2Oc3ccccc3N(Cc3ccccc3Cl)C2=O)cc1 (centres unmarked) [Compound 19, 4-(2-Chlorobenzyl)-2-[2-[4-(guanidinomethyl)phenoxy]ethyl]-3,4-dihydro-3-oxo-2H-1,4-benzoxazine] |
| 41 | 2 to 4 (≈ 4.3 to 8.6 µM) |  | N=C(N)NCCc1ccc(OCCC2CN(Cc3ccc(Cl)cc3)c3ccccc3O2)cc1 (centres unmarked) [Compound 22, 4-(4-Chlorobenzyl)-2-[2-[4-(2-guanidinoethyl)phenoxy]ethyl]-3,4-dihydro-2H-1,4-benzoxazine] |
| 17 | 1 to 2 (≈ 2.15 to 4.3 µM) |  | N=C(N)NCCc1ccc(OCCC2CN(Cc3cccc(Cl)c3)c3ccccc3O2)cc1 (centres unmarked) [Compound 23, 4-(3-Chlorobenzyl)-2-[2-[4-(2-guanidinoethyl)phenoxy]ethyl]-3,4-dihydro-2H-1,4-benzoxazine] |
| 68 | 2 to 4 (≈ 4.18 to 8.35 µM) |  | N=C(N)NCCc1ccc(OCCC2Oc3ccccc3N(Cc3ccc(Cl)cc3)C2=O)cc1 (centres unmarked) [Compound 26, 4-(4-Chlorobenzyl)-3,4-dihydro-2-[2-[4-(2-guanidinoethyl)phenoxy]ethyl]-3-oxo-2H-1,4-benzoxazine] |
| 46 | 4 to 16 (≈ 8.75 to 35 µM) |  | NCc1ccc(OCCC2Oc3ccccc3N(Cc3cc(Cl)cc(Cl)c3)C2=O)cc1 (centres unmarked) [Compound 39, 2-{2-[4-(2-Aminomethyl)phenoxy]ethyl}-4-(3,5-dichlorobenzyl)-3,4-dihydro-3-oxo-2H-1,4-benzoxazine] |
| 24 | 2 (≈ 3.9 µM) |  | N=C(N)NCCc1ccc(OCCC2Oc3ccccc3N(Cc3cc(Cl)cc(Cl)c3)C2=O)cc1 (centres unmarked) [Compound 40, 4-(3,5-Dichlorobenzyl)-3,4-dihydro-2-{2-[4-(2-guanidinoethyl)phenoxy]ethyl}-3-oxo-2H-1,4-benzoxazine] |
| 9 | 2 (≈ 3.9 µM) |  | N=C(N)NCCc1ccc(OCCC2Oc3ccc(Cl)cc3N(Cc3cccc(Cl)c3)C2=O)cc1 (centres unmarked) [Compound 50, 6-Chloro-4-(3-chlorobenzyl)-2-{2-[4-(2-guanidinoethyl)phenoxy]ethyl}-3,4-dihydro-3-oxo-2H-1,4-benzoxazine] |
| 17 | 2 (≈ 4.06 µM) |  | Cc1ccc2c(c1)OC(CCOc1ccc(CCNC(=N)N)cc1)C(=O)N2Cc1cccc(Cl)c1 (centres unmarked) [Compound 58, 4-(3-Chlorobenzyl)-2-{2-[4-(2-guanidinoethyl)phenoxy]ethyl}-3,4-dihydro-7-methyl-3-oxo-2H-1,4-benzoxazine] |
| 55 | 16 to 34 (≈ 43.4 to 92.3 µM) |  | CN1C(=O)C(CCOc2ccc(CCNC(=N)N)cc2)Oc2ccccc21 (centres unmarked) [Compound 60, 3,4-Dihydro-2-{2-[4-(2-guanidinoethyl)phenoxy]ethyl}-4-methyl-3-oxo-2H-1,4-benzoxazine] |
| 41 | 4 to 8 (≈ 9.42 to 18.8 µM) | 4 to 64 (≈ 9.42 to 151 µM) | CCCCCN1C(=O)C(CCOc2ccc(CCNC(=N)N)cc2)Oc2ccccc21 (centres unmarked) [Compound 61, 3,4-Dihydro-2-{2-[4-(2-guanidinoethyl)phenoxy]ethyl}-3-oxo-4-pentyl-2H-1,4-benzoxazine] |
| 32 | 4 to 8 (≈ 8.49 to 17 µM) |  | NCCc1cccc(OCCC2Oc3ccccc3N(Cc3cc(Cl)cc(Cl)c3)C2=O)c1 (centres unmarked) [Compound 64, 2-{2-[3-(2-Aminoethyl)phenoxy]ethyl}-4-(3,5-dichlorobenzyl)-3,4-dihydro-3-oxo-2H-1,4-benzoxazine] |
| 65 | 8 to 16 (≈ 18.3 to 36.6 µM) |  | NCCc1cccc(OCCC2Oc3ccccc3N(Cc3cccc(Cl)c3)C2=O)c1 (centres unmarked) [Compound 70, 2-{2-[3-(2-Aminoethyl)phenoxy]ethyl}-4-(3-chlorobenzyl)-3,4-dihydro-3-oxo-2H-1,4-benzoxazine] |
| 30 | 2 to 4 (≈ 4.18 to 8.35 µM) |  | N=C(N)NCCc1ccc(OCCC2Oc3ccccc3N(Cc3cccc(Cl)c3)C2=O)cc1 (centres unmarked) [Compound 72, 4-(3-Chlorobenzyl)-3,4-dihydro-2-{2-[4-(2-guanidinoethyl)phenoxy]ethyl}-3-oxo-2H-1,4-benzoxazine] |
| 81 | 8 to 16 (≈ 18.9 to 37.8 µM) |  | NCc1cccc(OCCC2Oc3ccccc3N(Cc3cccc(Cl)c3)C2=O)c1 (centres unmarked) [Compound 74, 2-{2-[3-(Aminomethyl)phenoxy]ethyl}-4-(3-chlorobenzyl)-3,4-dihydro-3-oxo-2H-1,4-benzoxazine] |
| 32 | 8 (≈ 17.7 µM) |  | NCCCc1ccc(OCCC2Oc3ccccc3N(Cc3cccc(Cl)c3)C2=O)cc1 (centres unmarked) [Compound 76, 2-{2-[4-(3-Aminopropyl)phenoxy]ethyl}-4-(3-chlorobenzyl)-3,4-dihydro-3-oxo-2H-1,4-benzoxazine] |
| 32 | 1 to 4 (≈ 2.15 to 8.6 µM) |  | N=C(N)NCc1ccc(OCCC2Oc3ccccc3N(Cc3cccc(Cl)c3)C2=O)cc1 (centres unmarked) [Compound 78, 4-(3-Chlorobenzyl)-3,4-dihydro-2-{2-[4-(guanidinylmethyl)phenoxy]ethyl}-3-oxo-2H-1,4-benzoxazine] |
| 78 | 8 to 16 (≈ 18.3 to 36.6 µM) |  | NCCc1ccc(OCCC2Oc3ccccc3N(Cc3cccc(Cl)c3)C2=O)cc1 (centres unmarked) [Compound 79, 2-{2-[4-(2-Aminoethyl)phenoxy]ethyl}-4-(3-chlorobenzyl)-3,4-dihydro-3-oxo-2H-1,4-benzoxazine] |
| 17 | 1 to 4 (≈ 1.91 to 7.63 µM) |  | N=C(N)NCCc1ccc(OCCC2Oc3ccc([N+](=O)[O-])cc3N(Cc3ccccc3Cl)C2=O)cc1 (centres unmarked) [Compound 89, 3,4-Dihydro-2-{2-[4-(2-guanidinoethyl)-phenoxy]ethyl}-6-nitro-4-(2-chlorobenzyl)-3-oxo-2H-1,4-benzoxazine] |
| 34 | 2 to 16 (≈ 4.05 to 32.4 µM) |  | N=C(N)NCCc1ccc(OCCC2Oc3ccc(N)cc3N(Cc3cccc(Cl)c3)C2=O)cc1 (centres unmarked) [Compound 92, 6-Amino-4-(3-chlorobenzyl)-3,4-dihydro-2-{2-[4-(2-guanidinoethyl)phenoxy]ethyl}-3-oxo-2H-1,4-benzoxazine] |
| 23 | 1 to 2 (≈ 2.22 to 4.43 µM) |  | N=C(N)NCc1ccc(OCCC2CN(Cc3ccccc3Cl)c3ccccc3O2)cc1 (centres unmarked) [Compound 145, 2-[2-[4-(2-guanidinomethyl)phenoxy]ethyl]-4-(2-chlorobenzyl)-3,4-dihydro-2H-1,4-benzoxazine] |
